What was measured:
Ca-Ski [1] = assay: Antiproliferative activity against human CaSki cells assessed as inhibition of cell viability incubated for 48 hrs by MTT assay; type: functional, cell-based; conditions: dose microM 3.125-100, time 48.0 hrs
Ca-Ski [2] = assay: Induction of apoptosis in human CaSki cells at 50 uM after 48 hrs by Annexin V-FITC/PI double staining based flow cytometric analysis (reference value: 6.25 +/-0.5%); type: functional
[3] = Inhibition of Human papillomavirus type 16 derived E7 gene expression in human CaSki cells assessed as fold change in expression at 12.5 uM measured after 48 hrs by RT-qPCR analysis relative to control; type: functional, Ca-Ski
Ca-Ski [4] = assay: Induction of apoptosis in human CaSki cells assessed as viable cells at 25 uM after 48 hrs by Annexin V-FITC/PI double staining based flow cytometric analysis (reference value: 93%); type: functional; conditions: read-out: Activity
Ca-Ski [5] = assay: Induction of apoptosis in human CaSki cells assessed as necrotic cells at 50 uM after 48 hrs by Annexin V-FITC/PI double staining based flow cytometric analysis (Rvb =0.075%); type: functional
Ca-Ski [6] = assay: Induction of apoptosis in human CaSki cells assessed as late apoptotic cells at 12.5 uM after 48 hrs by Annexin V-FITC/PI double staining based flow cytometric analysis (Rvb =5.59%); type: functional
[7] = Inhibition of Human papillomavirus type 16 derived E6 gene expression in human CaSki cells assessed as fold change in expression at 25 uM measured after 48 hrs by RT-qPCR analysis relative to control; type: functional, Ca-Ski
[8] = Inhibition of Human papillomavirus type 16 derived E7 gene expression in human CaSki cells assessed as fold change in expression at 25 uM measured after 48 hrs by RT-qPCR analysis relative to control; type: functional, Ca-Ski
Ca-Ski [9] = assay: Induction of apoptosis in human CaSki cells assessed as early apoptotic cells at 25 uM after 48 hrs by Annexin V-FITC/PI double staining based flow cytometric analysis (Rvb =0.697%); type: functional
Ca-Ski [10] = assay: Induction of apoptosis in human CaSki cells assessed as necrotic cells at 12.5 uM after 48 hrs by Annexin V-FITC/PI double staining based flow cytometric analysis (Rvb =0.075%); type: functional
[11] = Inhibition of Human papillomavirus type 16 derived E6 gene expression in human CaSki cells assessed as fold change in expression at 12.5 uM measured after 48 hrs by RT-qPCR analysis relative to control; type: functional, Ca-Ski
Ca-Ski [12] = assay: Induction of apoptosis in human CaSki cells at 12.5 uM after 48 hrs by Annexin V-FITC/PI double staining based flow cytometric analysis (reference value: 6.25 +/-0.5%); type: functional
[13] = Inhibition of Human papillomavirus type 16 derived E6 gene expression in human CaSki cells assessed as fold change in expression at 50 uM measured after 48 hrs by RT-qPCR analysis relative to control; type: functional, Ca-Ski
Ca-Ski [14] = assay: Induction of apoptosis in human CaSki cells assessed as early apoptotic cells at 50 uM after 48 hrs by Annexin V-FITC/PI double staining based flow cytometric analysis (Rvb =0.697%); type: functional
Ca-Ski [15] = assay: Induction of apoptosis in human CaSki cells assessed as late apoptotic cells at 25 uM after 48 hrs by Annexin V-FITC/PI double staining based flow cytometric analysis (Rvb =5.59%); type: functional
Ca-Ski [16] = assay: Induction of apoptosis in human CaSki cells assessed as necrotic cells at 25 uM after 48 hrs by Annexin V-FITC/PI double staining based flow cytometric analysis (Rvb =0.075%); type: functional
Ca-Ski [17] = assay: Antiproliferative activity against human CaSki cells assessed as reduction in cell viability at 3.125-100 uM by MTT assay; type: functional, cell-based; conditions: dose microM 3.125-100, time hrs 24-72, TDE = time-dependent effect
[18] = Inhibition of Human papillomavirus type 16 derived E7 gene expression in human CaSki cells assessed as fold change in expression at 50 uM measured after 48 hrs by RT-qPCR analysis relative to control; type: functional, Ca-Ski
Ca-Ski [19] = assay: Induction of apoptosis in human CaSki cells after 48 hrs by Annexin V-FITC/PI double staining based flow cytometric analysis; type: functional, cell-based; conditions: dose microM 12.5-50, time 48.0 hrs
Ca-Ski [20] = assay: Induction of apoptosis in human CaSki cells assessed as viable cells at 50 uM after 48 hrs by Annexin V-FITC/PI double staining based flow cytometric analysis (reference value: 93%); type: functional; conditions: read-out: Activity
Ca-Ski [21] = assay: Induction of apoptosis in human CaSki cells assessed as early apoptotic cells at 12.5 uM after 48 hrs by Annexin V-FITC/PI double staining based flow cytometric analysis (Rvb =0.697%); type: functional
Ca-Ski [22] = assay: Induction of apoptosis in human CaSki cells assessed as late apoptotic cells at 50 uM after 48 hrs by Annexin V-FITC/PI double staining based flow cytometric analysis (Rvb =5.59%); type: functional
Ca-Ski [23] = assay: Induction of apoptosis in human CaSki cells assessed as viable cells at 12.5 uM after 48 hrs by Annexin V-FITC/PI double staining based flow cytometric analysis (reference value: 93%); type: functional; conditions: read-out: Activity
Ca-Ski [24] = assay: Induction of apoptosis in human CaSki cells at 25 uM after 48 hrs by Annexin V-FITC/PI double staining based flow cytometric analysis (reference value: 6.25 +/-0.5%); type: functional

## CCCCN1C(=O)/C(=C/c2ccc(F)cc2)CC1(C(=O)NC(C)(C)C)C(=O)c1ccc(Cl)cc1 (stereo unspecified)
Ca-Ski [1]
  Activity: Dose-dependent effect

## CC(C)N1C(=O)/C(=C/c2ccc(F)cc2)CC1(C(=O)NC(C)(C)C)C(=O)c1ccc(Cl)cc1 (stereo unspecified)
Ca-Ski [2]
  Activity: 41.2%
[3]
  fold change (FC): 0.483
Ca-Ski [4]
  viability at 25 µM: 75.3%
Ca-Ski [5]
  Activity: 0.217%
Ca-Ski [6]
  Activity: 6.24%
[7]
  fold change (FC): 0.547
[8]
  fold change (FC): 0.465
Ca-Ski [9]
  Activity: 14.9%
Ca-Ski [10]
  Activity: 0.18%
[11]
  fold change (FC): 0.653
Ca-Ski [12]
  Activity: 15.6%
[13]
  fold change (FC): 0.354
Ca-Ski [14]
  Activity: 26.2%
Ca-Ski [15]
  Activity: 9.65%
Ca-Ski [16]
  Activity: 0.105%
Ca-Ski [17]
  Activity: Tde
[18]
  fold change (FC): 0.432
Ca-Ski [19]
  Activity: Dose-dependent effect
Ca-Ski [20]
  viability at 50 µM: 58.5%
Ca-Ski [1]
  Activity: Dose-dependent effect
Ca-Ski [21]
  Activity: 8.2%
Ca-Ski [22]
  Activity: 15%
Ca-Ski [23]
  viability at 12.5 µM: 85.4%
Ca-Ski [24]
  Activity: 23.56%

## CC(C)N1C(=O)/C(=C/c2ccc(F)cc2)CC1(C(=O)NC(C)(C)C)C(=O)c1ccc(Br)cc1 (stereo unspecified)
Ca-Ski [1]
  Activity: Dose-dependent effect
